Reference: patent US20200237742A1, “Serdexmethylphenidate Conjugates, Compositions And Methods Of Use Thereof” (priority 2018, published 2020)

System: healthy, nondependent, recreational stimulant users
Assay: Oral abuse potential study, VAS pharmacodynamic assessments
Details: for Mean Difference Any Effects Emax, B vs E / Mean Difference Bad Effects Emax, B vs E / Mean Difference Feeling Alert/Drowsy Emax, B vs E / Mean Difference Feeling High Emax, B vs E / Mean Difference Good Effects Emax, B vs E / Mean Difference Overall Drug Liking Emax, B vs E / Mean Difference Take Drug Again Emax, B vs E / Mean Difference Drug Liking Emax, B vs E: SDX Cl 240 mg vs placebo
[1] = Focalin XR 80 mg vs SDX Cl 120 mg
[2] = Focalin XR 80 mg vs SDX Cl 240 mg
[3] = SDX Cl 120 mg vs placebo, listed as SDX chloride
[4] = phentermine HCl 60 mg vs SDX Cl 120 mg
[5] = phentermine HCl 60 mg vs SDX Cl 240 mg
[6] = phentermine HCl 60 mg vs SDX Cl 240 mg, listed as SDX chloride

## COC(=O)[C@H](c1ccccc1)[C@H]1CCCCN1C(=O)OC[n+]1cccc(C(=O)N[C@@H](CO)C(=O)O)c1.[Cl-] [serdexmethylphenidate chloride]
[1]
  Mean Difference Any Effects Emax, C vs A: statistically lower
  Mean Difference Bad Effects Emax, C vs A: statistically lower
  Mean Difference Feeling Alert/Drowsy Emax, C vs A: statistically lower
  Mean Difference Feeling High Emax, C vs A: statistically lower
  Mean Difference Good Effects Emax, C vs A: statistically lower
  Mean Difference Overall Drug Liking Emax, C vs A: about 4.5
  Mean Difference Take Drug Again Emax, C vs A: not statistically significant
Focalin XR 80 mg vs SDX Cl 120 mg, listed as SDX chloride
  Mean Difference Overall Drug Liking Emax, C vs A: not statistically significant
Focalin XR 80 mg vs SDX Cl 120 mg, margin 10
  Mean Difference Drug Liking Emax, C vs A: at least 18.2
Focalin XR 80 mg vs SDX Cl 120 mg, margin 10, listed as SDX chloride
  Mean Difference Drug Liking Emax, C vs A: statistically significantly lower
[2]
  Mean Difference Any Effects Emax, C vs B: statistically lower
  Mean Difference Bad Effects Emax, C vs B: statistically lower
  Mean Difference Feeling Alert/Drowsy Emax, C vs B: statistically lower
  Mean Difference Feeling High Emax, C vs B: statistically lower
  Mean Difference Good Effects Emax, C vs B: statistically lower
  Mean Difference Overall Drug Liking Emax, C vs B: about 5.0
  Mean Difference Take Drug Again Emax, C vs B: not statistically significant
Focalin XR 80 mg vs SDX Cl 240 mg, listed as SDX chloride
  Mean Difference Overall Drug Liking Emax, C vs B: not statistically significant
Focalin XR 80 mg vs SDX Cl 240 mg, margin 10
  Mean Difference Drug Liking Emax, C vs B: at least 16.7
Focalin XR 80 mg vs SDX Cl 240 mg, margin 10, listed as SDX chloride
  Mean Difference Drug Liking Emax, C vs B: statistically significantly lower
SDX Cl 120 mg vs placebo
  Mean Difference Any Effects Emax, A vs E: 11.0
  Mean Difference Bad Effects Emax, A vs E: 1.3
  Mean Difference Feeling Alert/Drowsy Emax, A vs E: 7.7
  Mean Difference Feeling High Emax, A vs E: 10.4
  Mean Difference Good Effects Emax, A vs E: 12.1
  Mean Difference Overall Drug Liking Emax, A vs E: 3.8
  Mean Difference Take Drug Again Emax, A vs E: 2.2
[3]
  Mean Difference Bad Effects Emax, A vs E: not statistically different
  Mean Difference Feeling Alert/Drowsy Emax, A vs E: statistically higher
  Mean Difference Good Effects Emax, A vs E: statistically higher
  Mean Difference Overall Drug Liking Emax, A vs E: not statistically different
  Mean Difference Take Drug Again Emax, A vs E: not statistically different
SDX Cl 120 mg vs placebo, margin 11
  Mean Difference Drug Liking Emax, A vs E: 6.8
SDX Cl 120 mg vs placebo, margin 11, listed as SDX chloride
  Mean Difference Drug Liking Emax, A vs E: not statistically non-inferior
SDX Cl 120 mg, bipolar VAS
  Drug Liking Emax, Median: 53.0
  Feeling Alert/Drowsy Emax, Median: 54.0
  Overall Drug Liking Emax, Median: 50.0
  Take Drug Again Emax, Median: 50.0
SDX Cl 120 mg, unipolar VAS
  Any Effects Emax, Median: 14.0
  Bad Effects Emax, Median: 0.0
  Feeling High Emax, Median: 7.0
  Good Effects Emax, Mean: 27.0
  Good Effects Emax, Median: 10.0
  Mean Difference Any Effects Emax, B vs E: 20.5
  Mean Difference Bad Effects Emax, B vs E: 8.6
  Mean Difference Feeling Alert/Drowsy Emax, B vs E: 11.2
  Mean Difference Feeling High Emax, B vs E: 18.8
  Mean Difference Good Effects Emax, B vs E: 17.4
  Mean Difference Overall Drug Liking Emax, B vs E: 3.3
  Mean Difference Take Drug Again Emax, B vs E: 1.7
Listed as SDX chloride
  Mean Difference Any Effects Emax, B vs E: statistically higher
  Mean Difference Bad Effects Emax, B vs E: statistically higher
  Mean Difference Feeling Alert/Drowsy Emax, B vs E: statistically higher
  Mean Difference Feeling High Emax, B vs E: statistically higher
  Mean Difference Good Effects Emax, B vs E: statistically higher
  Mean Difference Overall Drug Liking Emax, B vs E: not statistically different
  Mean Difference Take Drug Again Emax, B vs E: not statistically different
Margin 11
  Mean Difference Drug Liking Emax, B vs E: 8.3
Margin 11, listed as SDX chloride
  Mean Difference Drug Liking Emax, B vs E: not statistically non-inferior
[4]
  Mean Difference Any Effects Emax, D vs A: statistically lower
  Mean Difference Bad Effects Emax, D vs A: statistically lower
  Mean Difference Feeling Alert/Drowsy Emax, D vs A: statistically lower
  Mean Difference Feeling High Emax, D vs A: statistically lower
  Mean Difference Good Effects Emax, D vs A: statistically lower
  Mean Difference Overall Drug Liking Emax, D vs A: about 14.9
  Mean Difference Take Drug Again Emax, D vs A: statistically lower
Phentermine HCl 60 mg vs SDX Cl 120 mg, listed as SDX chloride
  Mean Difference Overall Drug Liking Emax, D vs A: statistically lower
Phentermine HCl 60 mg vs SDX Cl 120 mg, margin 10
  Mean Difference Drug Liking Emax, D vs A: at least 15.5
Phentermine HCl 60 mg vs SDX Cl 120 mg, margin 10, listed as SDX chloride
  Mean Difference Drug Liking Emax, D vs A: statistically significantly lower
[5]
  Mean Difference Any Effects Emax, D vs B: statistically lower
  Mean Difference Bad Effects Emax, D vs B: statistically similar
  Mean Difference Feeling Alert/Drowsy Emax, D vs B: statistically lower
  Mean Difference Feeling High Emax, D vs B: statistically lower
  Mean Difference Good Effects Emax, D vs B: statistically lower
  Mean Difference Overall Drug Liking Emax, D vs B: about 15.3
  Mean Difference Take Drug Again Emax, D vs B: 15.4
[6]
  Mean Difference Overall Drug Liking Emax, D vs B: statistically lower
  Mean Difference Take Drug Again Emax, D vs B: statistically lower
Phentermine HCl 60 mg vs SDX Cl 240 mg, margin 10
  Mean Difference Drug Liking Emax, D vs B: at least 14.0
Phentermine HCl 60 mg vs SDX Cl 240 mg, margin 10, listed as SDX chloride
  Mean Difference Drug Liking Emax, D vs B: not statistically greater than 10 points
